Measurements: ChEMBL document CHEMBL3217712, “Improved biodistribution, pharmacokinetics and photodynamic efficacy using a new photostable sulfonamide bacteriochlorin” (Medchemcomm, 2012)
The source made the active and inactive calls. The rule behind the calls is not given here.

Assays:
[1] = Biodistribution in mouse Cloudman S91 tumor bearing DBA2 mouse heart at 10 mg/kg, ip after 2 hrs; assay type: ADME, organism-based; parameters: dose 10 mg/kg, route intraperitoneal; conditions: read-out: Drug uptake
[2] = Biodistribution in mouse Cloudman S91 tumor bearing DBA2 mouse tumour at 10 mg/kg, ip after 24 hrs; assay type: ADME, organism-based, Neoplasm; parameters: dose 10 mg/kg, route intraperitoneal; conditions: read-out: Drug uptake
[3] = Biodistribution in mouse Cloudman S91 tumor bearing DBA2 mouse kidneys at 10 mg/kg, ip after 2 hrs; assay type: ADME, organism-based; parameters: dose 10 mg/kg, route intraperitoneal; conditions: kidney, read-out: Drug uptake
[4] = n-Octanol-water partition coefficient, log P of the compound; assay type: physicochemical
[5] = Biodistribution in mouse Cloudman S91 tumor bearing DBA2 mouse liver at 10 mg/kg, ip after 12 hrs; assay type: ADME, organism-based; parameters: dose 10 mg/kg, route intraperitoneal; conditions: read-out: Drug uptake
[6] = Biodistribution in mouse Cloudman S91 tumor bearing DBA2 mouse kidneys at 10 mg/kg, ip after 72 hrs; assay type: ADME, organism-based; parameters: dose 10 mg/kg, route intraperitoneal; conditions: kidney, read-out: Drug uptake
[7] = Biodistribution in mouse Cloudman S91 tumor bearing DBA2 mouse blood at 10 mg/kg, ip after 2 hrs; assay type: ADME, organism-based; parameters: dose 10 mg/kg, route intraperitoneal; conditions: read-out: Drug uptake
[8] = Biodistribution in mouse Cloudman S91 tumor bearing DBA2 mouse skin at 10 mg/kg, ip after 48 hrs; assay type: ADME, organism-based, Zone of skin; parameters: dose 10 mg/kg, route intraperitoneal; conditions: read-out: Drug uptake
[9] = system: S91; test: Photodynamic efficacy against mouse Cloudman S91 cells allografted in DBA2 mouse assessed as necrotic and flat tumor at 10 mg/kg, ip followed by irradiated with 96 J cm'-2 laser light for 20 mins measured after 1 to 2 days; assay type: functional, organism-based; parameters: dose 10 mg/kg
[10] = system: S91; test: Photodynamic efficacy against mouse Cloudman S91 cells allografted in DBA2 mouse assessed as time of tumor growth delay at 10 mg/kg, ip followed by irradiated with 96 J cm'-2 laser light for 20 mins; assay type: functional; conditions: route intraperitoneal
[11] = Biodistribution in mouse Cloudman S91 tumor bearing DBA2 mouse muscle at 10 mg/kg, ip after 12 hrs; assay type: ADME, organism-based, Muscle tissue; parameters: dose 10 mg/kg, route intraperitoneal; conditions: read-out: Drug uptake
[12] = Biodistribution in mouse Cloudman S91 tumor bearing DBA2 mouse tumour at 10 mg/kg, ip after 12 hrs; assay type: ADME, organism-based, Neoplasm; parameters: dose 10 mg/kg, route intraperitoneal; conditions: read-out: Drug uptake
[13] = Biodistribution in mouse Cloudman S91 tumor bearing DBA2 mouse blood at 10 mg/kg, ip after 24 hrs; assay type: ADME, organism-based; parameters: dose 10 mg/kg, route intraperitoneal; conditions: read-out: Drug uptake
[14] = Biodistribution in mouse Cloudman S91 tumor bearing DBA2 mouse spleen at 10 mg/kg, ip after 72 hrs; assay type: ADME, organism-based; parameters: dose 10 mg/kg, route intraperitoneal; conditions: read-out: Drug uptake
[15] = Biodistribution in mouse Cloudman S91 tumor bearing DBA2 mouse muscle at 10 mg/kg, ip after 2 hrs; assay type: ADME, organism-based, Muscle tissue; parameters: dose 10 mg/kg, route intraperitoneal; conditions: read-out: Drug uptake
[16] = Biodistribution in mouse Cloudman S91 tumor bearing DBA2 mouse liver at 10 mg/kg, ip after 2 hrs; assay type: ADME, organism-based; parameters: dose 10 mg/kg, route intraperitoneal; conditions: read-out: Drug uptake
[17] = Biodistribution in mouse Cloudman S91 tumor bearing DBA2 mouse heart at 10 mg/kg, ip after 6 hrs; assay type: ADME, organism-based; parameters: dose 10 mg/kg, route intraperitoneal; conditions: read-out: Drug uptake
[18] = Biodistribution in mouse Cloudman S91 tumor bearing DBA2 mouse intestine at 10 mg/kg, ip after 24 hrs; assay type: ADME, organism-based; parameters: dose 10 mg/kg, route intraperitoneal; conditions: read-out: Drug uptake
[19] = Biodistribution in mouse Cloudman S91 tumor bearing DBA2 mouse spleen at 10 mg/kg, ip after 12 hrs; assay type: ADME, organism-based; parameters: dose 10 mg/kg, route intraperitoneal; conditions: read-out: Drug uptake
[20] = system: Mus musculus; test: Toxicity in mouse Cloudman S91 cells allografted DBA2 mouse assessed as skin damage with oedema and large scab formation at 10 mg/kg, ip followed by irradiated with 96 J cm'-2 laser light for 20 mins measured after 24 hrs; assay type: organism-based; parameters: dose 10 mg/kg, route intraperitoneal; conditions: in vivo
[21] = Biodistribution in mouse Cloudman S91 tumor bearing DBA2 mouse muscle at 10 mg/kg, ip after 72 hrs; assay type: ADME, organism-based, Muscle tissue; parameters: dose 10 mg/kg, route intraperitoneal; conditions: read-out: Drug uptake
[22] = Biodistribution in mouse Cloudman S91 tumor bearing DBA2 mouse skin at 10 mg/kg, ip after 24 hrs; assay type: ADME, organism-based, Zone of skin; parameters: dose 10 mg/kg, route intraperitoneal; conditions: read-out: Drug uptake
[23] = Biodistribution in mouse Cloudman S91 tumor bearing DBA2 mouse liver at 10 mg/kg, ip after 6 hrs; assay type: ADME, organism-based; parameters: dose 10 mg/kg, route intraperitoneal; conditions: read-out: Drug uptake
[24] = Biodistribution in mouse Cloudman S91 tumor bearing DBA2 mouse blood at 10 mg/kg, ip after 72 hrs; assay type: ADME, organism-based; parameters: dose 10 mg/kg, route intraperitoneal; conditions: read-out: Drug uptake
[25] = Biodistribution in mouse Cloudman S91 tumor bearing DBA2 mouse kidneys at 10 mg/kg, ip after 48 hrs; assay type: ADME, organism-based; parameters: dose 10 mg/kg, route intraperitoneal; conditions: kidney, read-out: Drug uptake
[26] = system: S91; test: Antitumor activity against mouse Cloudman S91 cells allografted in DBA2 mouse at 10 mg/kg, ip; assay type: functional, organism-based; parameters: dose 10 mg/kg
[27] = Biodistribution in mouse Cloudman S91 tumor bearing DBA2 mouse muscle at 10 mg/kg, ip after 48 hrs; assay type: ADME, organism-based, Muscle tissue; parameters: dose 10 mg/kg, route intraperitoneal; conditions: read-out: Drug uptake
[28] = Biodistribution in mouse Cloudman S91 tumor bearing DBA2 mouse spleen at 10 mg/kg, ip after 24 hrs; assay type: ADME, organism-based; parameters: dose 10 mg/kg, route intraperitoneal; conditions: read-out: Drug uptake
[29] = system: S91; test: Photodynamic efficacy against mouse Cloudman S91 cells allografted in DBA2 mouse assessed as disappearance of tumor at 10 mg/kg, ip followed by irradiated with 96 J cm'-2 laser light for 20 mins measured after 80 days; assay type: functional, organism-based; parameters: dose 10 mg/kg
[30] = Biodistribution in mouse Cloudman S91 tumor bearing DBA2 mouse lungs at 10 mg/kg, ip after 6 hrs; assay type: ADME, organism-based; parameters: dose 10 mg/kg, route intraperitoneal; conditions: lung, read-out: Drug uptake
[31] = Biodistribution in mouse Cloudman S91 tumor bearing DBA2 mouse heart at 10 mg/kg, ip after 12 hrs; assay type: ADME, organism-based; parameters: dose 10 mg/kg, route intraperitoneal; conditions: read-out: Drug uptake
[32] = Biodistribution in mouse Cloudman S91 tumor bearing DBA2 mouse skin at 10 mg/kg, ip after 72 hrs; assay type: ADME, organism-based, Zone of skin; parameters: dose 10 mg/kg, route intraperitoneal; conditions: read-out: Drug uptake
[33] = Biodistribution in mouse Cloudman S91 tumor bearing DBA2 mouse kidneys at 10 mg/kg, ip after 12 hrs; assay type: ADME, organism-based; parameters: dose 10 mg/kg, route intraperitoneal; conditions: kidney, read-out: Drug uptake
[34] = Biodistribution in mouse Cloudman S91 tumor bearing DBA2 mouse blood at 10 mg/kg, ip after 6 hrs; assay type: ADME, organism-based; parameters: dose 10 mg/kg, route intraperitoneal; conditions: read-out: Drug uptake
[35] = Biodistribution in mouse Cloudman S91 tumor bearing DBA2 mouse skin at 10 mg/kg, ip after 12 hrs; assay type: ADME, organism-based, Zone of skin; parameters: dose 10 mg/kg, route intraperitoneal; conditions: read-out: Drug uptake
[36] = Biodistribution in mouse Cloudman S91 tumor bearing DBA2 mouse skin at 10 mg/kg, ip after 6 hrs; assay type: ADME, organism-based, Zone of skin; parameters: dose 10 mg/kg, route intraperitoneal; conditions: read-out: Drug uptake
[37] = Biodistribution in mouse Cloudman S91 tumor bearing DBA2 mouse kidneys at 10 mg/kg, ip after 6 hrs; assay type: ADME, organism-based; parameters: dose 10 mg/kg, route intraperitoneal; conditions: kidney, read-out: Drug uptake

concentration at 2 h [1]: 40 ng/g
concentration at 24 h [2]: 960 ng/g
concentration at 2 h [3]: 100 ng/g
logP [4]: 1.83
concentration at 12 h [5]: 4000 ng/g
concentration at 72 h [6]: 200 ng/g
concentration at 2 h [7]: 90 ng/g
concentration at 48 h [8]: 80 ng/g
concentration at 12 h [11]: 120 ng/g
concentration at 12 h [12]: 370 ng/g
concentration at 24 h [13]: 230 ng/g
concentration at 72 h [14]: 3000 ng/g
concentration at 2 h [15]: 30 ng/g
concentration at 2 h [16]: 980 ng/g
concentration at 6 h [17]: 100 ng/g
concentration at 24 h [18]: 750 ng/g
concentration at 12 h [19]: 6100 ng/g
concentration at 72 h [21]: 15 ng/g
concentration at 24 h [22]: 170 ng/g
concentration at 6 h [23]: 4800 ng/g
concentration at 72 h [24]: 50 ng/g
concentration at 48 h [25]: 400 ng/g
concentration at 48 h [27]: 70 ng/g
concentration at 24 h [28]: 10000 ng/g
concentration at 6 h [30]: 300 ng/g
concentration at 12 h [31]: 200 ng/g
concentration at 72 h [32]: 19 ng/g
concentration at 12 h [33]: 300 ng/g
concentration at 6 h [34]: 240 ng/g
concentration at 12 h [35]: 180 ng/g
concentration at 6 h [36]: 70 ng/g
concentration at 6 h [37]: 400 ng/g
SMILES: CCNS(=O)(=O)c1ccc(Cl)c(-c2c3nc(c(-c4c(Cl)ccc(S(=O)(=O)NCC)c4Cl)c4ccc([nH]4)c(-c4c(Cl)ccc(S(=O)(=O)NCC)c4Cl)c4nc(c(-c5c(Cl)ccc(S(=O)(=O)NCC)c5Cl)c5ccc2[nH]5)CC4)CC3)c1Cl
Activity [9]: Active
Time [10]: 44 days
Activity [20]: Toxic
Activity [26]: inactive
Activity [29]: inactive
